Assays:
[1] = xn = mol fraction of the nth substance listed

CCO [ethanol] + CCC(C)CO
[1], x2 = 0
Details | surface tension liquid-gas [mN/m]
293.15 K | 22.31
298.15 K | 21.82
303.15 K | 21.41
308.15 K | 21.04
313.15 K | 20.62
318.15 K | 20.22
323.15 K | 19.82

CCC(C)(C)O [2-methylbutan-2-ol]
Details | surface tension liquid-gas [mN/m]
293.15 K | 24.04
298.15 K | 23.61
303.15 K | 23.14
308.15 K | 22.69
313.15 K | 22.3
318.15 K | 21.86
323.15 K | 21.44

CCC(C)CO (stereo not given) [2-methyl-1-butanol] + CCO
surface tension liquid-gas [mN/m], [1]
Details | 293.15 K | 298.15 K | 303.15 K | 308.15 K | 313.15 K | 318.15 K | 323.15 K
x1 = 0.0268 | 22.48 | 22.1 | 21.71 | 21.39 | 21.04 | 20.68 | 20.36
x1 = 0.0549 | 22.65 | 22.25 | 21.9 | 21.56 | 21.22 | 20.9 | 20.55
x1 = 0.0845 | 22.76 | 22.37 | 21.99 | 21.67 | 21.33 | 21 | 20.64
x1 = 0.1156 | 22.86 | 22.47 | 22.1 | 21.75 | 21.44 | 21.08 | 20.73
x1 = 0.1484 | 22.96 | 22.54 | 22.17 | 21.82 | 21.49 | 21.12 | 20.81
x1 = 0.183 | 23.01 | 22.62 | 22.23 | 21.89 | 21.54 | 21.2 | 20.86
x1 = 0.2584 | 23.15 | 22.72 | 22.35 | 22 | 21.61 | 21.24 | 20.91
x1 = 0.3433 | 23.28 | 22.86 | 22.46 | 22.11 | 21.76 | 21.37 | 20.98
x1 = 0.4395 | 23.43 | 22.98 | 22.58 | 22.22 | 21.83 | 21.44 | 21.05
x1 = 0.5495 | 23.56 | 23.09 | 22.69 | 22.3 | 21.94 | 21.54 | 21.15
x1 = 0.6765 | 23.72 | 23.25 | 22.82 | 22.41 | 22.02 | 21.61 | 21.27
x1 = 0.8247 | 23.89 | 23.38 | 22.96 | 22.54 | 22.13 | 21.7 | 21.33
x1 = 1 | 24.09 | 23.61 | 23.14 | 22.69 | 22.3 | 21.86 | 21.44

CC(C)CCO [3-methylbutan-1-ol] + CCO
surface tension liquid-gas [mN/m], [1]
Details | 293.15 K | 298.15 K | 303.15 K | 308.15 K | 313.15 K | 318.15 K | 323.15 K
x1 = 0.0268 | 22.56 | 22.09 | 21.7 | 21.35 | 20.95 | 20.56 | 20.17
x1 = 0.0549 | 22.78 | 22.32 | 21.94 | 21.59 | 21.19 | 20.81 | 20.44
x1 = 0.0845 | 22.98 | 22.54 | 22.17 | 21.81 | 21.41 | 21.04 | 20.67
x1 = 0.1156 | 23.17 | 22.73 | 22.36 | 22.01 | 21.62 | 21.24 | 20.87
x1 = 0.1484 | 23.33 | 22.9 | 22.53 | 22.17 | 21.78 | 21.41 | 21.04
x1 = 0.183 | 23.49 | 23.05 | 22.68 | 22.32 | 21.92 | 21.55 | 21.17
x1 = 0.2584 | 23.75 | 23.32 | 22.95 | 22.58 | 22.18 | 21.8 | 21.42
x1 = 0.3433 | 23.96 | 23.54 | 23.17 | 22.79 | 22.39 | 22.01 | 21.63
x1 = 0.4395 | 24.13 | 23.72 | 23.36 | 22.97 | 22.57 | 22.19 | 21.81
x1 = 0.5495 | 24.25 | 23.85 | 23.49 | 23.1 | 22.7 | 22.33 | 21.95
x1 = 0.6765 | 24.34 | 23.96 | 23.61 | 23.21 | 22.82 | 22.44 | 22.06
x1 = 0.8247 | 24.41 | 24.05 | 23.71 | 23.29 | 22.89 | 22.51 | 22.12
x1 = 1 | 24.5 | 24.15 | 23.8 | 23.36 | 22.96 | 22.57 | 22.17

CCO [ethanol] + CCC(C)(C)O
[1], x2 = 0
Details | surface tension liquid-gas [mN/m]
293.15 K | 22.31
298.15 K | 21.82
303.15 K | 21.41
308.15 K | 21.04
313.15 K | 20.62
318.15 K | 20.22
323.15 K | 19.82

CCO [ethanol] + CC(C)CCO
[1], x2 = 0
Details | surface tension liquid-gas [mN/m]
293.15 K | 22.31
298.15 K | 21.82
303.15 K | 21.41
308.15 K | 21.04
313.15 K | 20.62
318.15 K | 20.22
323.15 K | 19.82

CCO [ethanol]
Details | surface tension liquid-gas [mN/m]
293.15 K | 22.31
298.15 K | 21.82
303.15 K | 21.41
308.15 K | 21.04
313.15 K | 20.62
318.15 K | 20.22
323.15 K | 19.82

CCC(C)(C)O [2-methylbutan-2-ol] + CCO
surface tension liquid-gas [mN/m], [1]
Details | 293.15 K | 298.15 K | 303.15 K | 308.15 K | 313.15 K | 318.15 K | 323.15 K
x1 = 0.0268 | 22.5 | 22.05 | 21.67 | 21.34 | 20.93 | 20.58 | 20.22
x1 = 0.0549 | 22.66 | 22.23 | 21.85 | 21.51 | 21.16 | 20.82 | 20.48
x1 = 0.0845 | 22.78 | 22.36 | 21.98 | 21.64 | 21.3 | 20.97 | 20.62
x1 = 0.1156 | 22.88 | 22.46 | 22.08 | 21.75 | 21.41 | 21.07 | 20.72
x1 = 0.1484 | 22.97 | 22.54 | 22.16 | 21.83 | 21.48 | 21.14 | 20.79
x1 = 0.183 | 23.04 | 22.61 | 22.23 | 21.89 | – | 21.2 | 20.84
x1 = 0.2584 | 23.16 | 22.73 | 22.34 | 21.99 | – | 21.28 | 20.92
x1 = 0.3433 | 23.28 | 22.84 | 22.45 | 22.09 | 21.73 | 21.36 | 21
x1 = 0.4395 | 23.41 | 22.97 | 22.56 | 22.19 | 21.82 | 21.45 | 21.08
x1 = 0.5495 | 23.55 | 23.1 | 22.68 | 22.29 | 21.92 | 21.53 | 21.16
x1 = 0.6765 | 23.7 | 23.24 | 22.81 | 22.4 | 22.02 | 21.62 | 21.23
x1 = 0.8247 | 23.88 | 23.41 | 22.96 | 22.53 | 22.15 | 21.73 | 21.34
x1 = 1 | 24.04 | 23.61 | 23.14 | 22.69 | 22.3 | 21.86 | 21.44

CCC(C)CO (stereo not given) [2-methyl-1-butanol]
Details | surface tension liquid-gas [mN/m]
293.15 K | 24.09
298.15 K | 23.61
303.15 K | 23.14
308.15 K | 22.69
313.15 K | 22.3
318.15 K | 21.86
323.15 K | 21.44

CC(C)CCO [3-methylbutan-1-ol]
Details | surface tension liquid-gas [mN/m]
293.15 K | 24.5
298.15 K | 24.15
303.15 K | 23.8
308.15 K | 23.36
313.15 K | 22.96
318.15 K | 22.57
323.15 K | 22.17
